Test results reported in US7884117B2, “Carbonylamino pyrrolopyrazoles, potent kinase inhibitors” (Pfizer Inc., priority 2005, dated 2011).

Columns and labels:
[1] = target: T1, PAK4 Kinase domain (PAK4 KD) (Homo sapiens, UniProt O96013); assay: PAK4 kinase domain enzymatic assay (PK/LDH-coupled, Ki); assay type: biochemical; conditions: PAK4 Kinase Domain
T1 construct: Cloning, expression, and purification of recombinant PAK4 Kinase domain (PAK4 KD); His tag (pET28a(+)/pET24a(+), Ni-NTA purification) (N, cleaved yes); GST (pGST4.5, glutathione column) (N, cleaved yes); made in house; host or cells: E. coli BL21(DE3)
T1 sequence (O96013 321-572 limits assumed): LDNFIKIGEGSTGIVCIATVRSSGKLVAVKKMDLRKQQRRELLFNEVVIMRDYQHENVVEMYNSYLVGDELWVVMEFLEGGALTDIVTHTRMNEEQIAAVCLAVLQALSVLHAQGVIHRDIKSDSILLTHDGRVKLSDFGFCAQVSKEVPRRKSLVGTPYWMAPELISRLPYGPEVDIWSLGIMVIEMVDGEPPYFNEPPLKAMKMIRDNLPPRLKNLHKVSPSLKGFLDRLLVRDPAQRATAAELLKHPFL

[2] = target: T2, PAK4 kinase activity in whole cells (TR-293-KDG, modified HEK 293) (Homo sapiens, UniProt O96013); assay: PAK4 cellular assay: sandwich ELISA of PAK4-dependent phosphorylation of GEF-H1b in TR-293-KDG cells; assay type: cell-based; conditions: 3-hour exposure
T2 construct: engineered to overexpress both GEF-H1b and the kinase domain (KD) of PAK4; expressed in transfected cells; host or cells: TR-293-KDG (modified HEK 293, Trex system, Invitrogen)
T2 sequence (O96013 321-572 limits assumed): as above

What does the source list for CN(Cc1ccccc1)C[C@@H](OC(=O)N1Cc2c(NC(=O)c3ccc(F)cc3)n[nH]c2C1(C)C)c1ccccc1 [Example 82, (1S)-2-[benzyl(methyl)amino]-1-phenylethyl 3-[(4-fluorobenzoyl)amino]-6,6-dimethyl-4,6-dihydropyrrolo[3,4-c]pyrazole-5(1H)-carboxylate]?
Ki [1]: 434 nM; EC50 [2]: 301 nM

What does the source list for CN(C)C[C@@H](OC(=O)N1Cc2c(NC(=O)c3ccno3)n[nH]c2C1(C)C)c1ccccc1 [Example 85, (S)-2-(dimethylamino)-1-phenylethyl 3-(isoxazole-5-carboxamido)-6,6-dimethylpyrrolo[3,4-c]pyrazole-5(1H,4H,6H)-carboxylate]?
Ki [1]: 143 nM; EC50 [2]: 4 nM

How did the Ki [1] turn out when Cc1cc(C(=O)Nc2n[nH]c3c2CN(C(=O)O[C@H](CN(C)C)c2ccccc2)C3(C)C)no1 [Example 86, (S)-2-(dimethylamino)-1-phenylethyl 6,6-dimethyl-3-(5-methylisoxazole-3-carboxamido)pyrrolo[3,4-c]pyrazole-5(1H,4H,6H)-carboxylate] was run?
Its Ki is 68.7 nM.

And the EC50 [2]?
The EC50 was 18 nM.

Which results are given for COc1ccc(CC(=O)Nc2n[nH]c3c2CN(C(=O)O[C@H](CN(C)C)c2ccccn2)C3(C)C)cc1 [Example 88, (1R)-2-(dimethylamino)-1-pyridin-2-ylethyl 3-{[(4-methoxyphenyl)-acetyl]amino}-6,6-dimethyl-4,6-dihydropyrrolo[3,4-c]pyrazole-5(1H)-carboxylate]?
Ki [1]: 35.6 nM; EC50 [2]: 88 nM

Which Ki [1] does the source give for CN(C)C[C@@H](OC(=O)N1Cc2c(NC(=O)[C@H]3CCCO3)n[nH]c2C1(C)C)c1ccccc1 [Example 89, (S)-2-(dimethylamino)-1-phenylethyl 6,6-dimethyl-3-((R)-tetrahydrofuran-2-carboxamido)pyrrolo[3,4-c]pyrazole-5(1H,4H,6H)-carboxylate] here?
The Ki was 156 nM.

What about the EC50 [2] of the same compound?
Its EC50 is 10 nM.

How did the Ki [1] turn out when CO[C@@H](C)C(=O)Nc1n[nH]c2c1CN(C(=O)O[C@H](CN(C)C)c1ccccc1)C2(C)C [Example 90, (S)-2-(dimethylamino)-1-phenylethyl 3-((S)-2-methoxypropanamido)-6,6-dimethylpyrrolo[3,4-c]pyrazole-5(1H,4H,6H)-carboxylate] was run?
The Ki was 251 nM.

What about the EC50 [2] of the same compound?
Its EC50 is 4 nM.

With CN(C)C[C@@H](OC(=O)N1Cc2c(NC(=O)[C@@H]3CCCO3)n[nH]c2C1(C)C)c1ccccc1 [Example 92, (S)-2-(dimethylamino)-1-phenylethyl 6,6-dimethyl-3-((S)-tetrahydrofuran-2-carboxamido)pyrrolo[3,4-c]pyrazole-5(1H,4H,6H)-carboxylate] as the compound, how does the Ki [1] read?
Its Ki is 345 nM.

And the EC50 [2]?
Its EC50 is 103 nM.

What does the source list for CN(C)CC(OC(=O)N1Cc2c(NC(=O)c3ccc(F)cc3)n[nH]c2C1(C)C)c1nccs1 (stereo not shown) [Example 93, 2-(dimethylamino)-1-(thiazol-2-yl)ethyl 3-(4-fluorobenzamido)-6,6-dimethylpyrrolo[3,4-c] pyrazole-5(1H,4H,6H)-carboxylate]?
Ki [1]: 335 nM; EC50 [2]: 178 nM

What does the source list for CN(C)CC(OC(=O)N1Cc2c(NC(=O)c3ccc(F)cc3)n[nH]c2C1(C)C)c1cccc2cccnc12 (stereo not shown) [Example 94, 2-(dimethylamino)-1-(quinolin-8-yl)ethyl 3-(4-fluorobenzamido)-6,6-dimethylpyrrolo[3,4-c] pyrazole-5(1H,4H,6H)-carboxylate]?
Ki [1]: 161 nM; EC50 [2]: 413 nM

Which Ki [1] does the source give for CN(C)CC(OC(=O)N1Cc2c(NC(=O)c3ccc(F)cc3)n[nH]c2C1(C)C)c1ccc(C#N)cc1 (stereo not shown) [Example 95, 1-(4-cyanophenyl)-2-(dimethylamino)ethyl 3-(4-fluorobenzamido)-6,6-dimethylpyrrolo[3,4-c] pyrazole-5(1H,4H,6H)-carboxylate] here?
The Ki was 137 nM.

And the EC50 [2]?
Its EC50 is 127 nM.

Which Ki [1] does the source give for CN(C)C[C@@H](NC(=O)N1Cc2c(NC(=O)c3cccc(Oc4ccccc4)c3)n[nH]c2C1(C)C)c1ccccc1 [Example 96, N-[(1S)-2-(dimethylamino)-1-phenylethyl]-6,6-dimethyl-3-[(3-phenoxybenzoyl)amino]-4,6-dihydropyrrolo[3,4-c]pyrazole-5(1H)-carboxamide] here?
The Ki was 12.5 nM.

What about the EC50 [2] of the same compound?
Its EC50 is 59 nM.
